Data reported in the supplement of paper PMC4862054.
“And” between values parts separate entries of the source, which are not always exact repeats. Identical values can stand only once.

What was measured:
Hs578T [1] = experiment: normalised viability (% of control), CellTiter-Blue; higher = more viable cells (about 100 = DMSO control); conditions: incubation time: 72 h
Outline: (§1)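 Breast cancer cell lines were treated for 72 h in 384-well format and measured by CellTiter-Blue fluorescence at 560/590 nm. Results were normalised per plate to vehicle (100) and a positive kill control (0). The entry is normalised viability at a single listed concentration of the series.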

CAL-51 [2] = experiment: as above; conditions: incubation time: 72 h
Outline: as §1

MFM-223 [3] = experiment: as above; conditions: incubation time: 72 h
Outline: as §1

HCC1143 [4] = experiment: as above; conditions: incubation time: 72 h
Outline: as §1

MDA-MB-231 [5] = experiment: as above; conditions: incubation time: 72 h
Outline: as §1

MDA-MB-436 [6] = experiment: as above; conditions: incubation time: 72 h
Outline: as §1

MDA-MB-468 [7] = experiment: as above; conditions: incubation time: 72 h
Outline: as §1

DU-4475 [8] = experiment: as above; conditions: incubation time: 72 h
Outline: as §1

HCC1937 [9] = experiment: as above; conditions: incubation time: 72 h
Outline: as §1

Hs578T [10] = experiment: normalised viability (% of control), CellTiter-Blue; higher = more viable cells (100 = DMSO, 0 = benzethonium chloride kill control); conditions: incubation time: 72 h
Description: (§2)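 DSRT, CellTiter-Blue viability, 72 h incubation. Signal is normalised to DMSO and benzethonium chloride controls. Value is the normalised response at dose 1.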

CAL-51 [11] = experiment: as above; conditions: incubation time: 72 h
Description: as §2

BT-549 = experiment: as above; conditions: incubation time: 72 h
Description: as §2

CAL-85-1 = experiment: as above; conditions: incubation time: 72 h
Description: as §2

HCC1599 = experiment: as above; conditions: incubation time: 72 h
Description: as §2

HDQ-P1 = experiment: as above; conditions: incubation time: 72 h
Description: as §2

MFM-223 [12] = experiment: as above; conditions: incubation time: 72 h
Description: as §2

MDA-MB-453 = experiment: as above; conditions: incubation time: 72 h
Description: as §2

CAL-120 = experiment: as above; conditions: incubation time: 72 h
Description: as §2

HCC1143 [13] = experiment: as above; conditions: incubation time: 72 h
Description: as §2

CAL-148 = experiment: as above; conditions: incubation time: 72 h
Description: as §2

MDA-MB-231 [14] = experiment: as above; conditions: incubation time: 72 h
Description: as §2

MDA-MB-436 [15] = experiment: as above; conditions: incubation time: 72 h
Description: as §2

MDA-MB-468 [16] = experiment: as above; conditions: incubation time: 72 h
Description: as §2

DU-4475 [17] = experiment: as above; conditions: incubation time: 72 h
Description: as §2

SK-BR-3 = experiment: as above; conditions: incubation time: 72 h
Description: as §2

HCC1937 [18] = experiment: as above; conditions: 1 nM; incubation time: 72 h
Description: as §2

BT-474 = experiment: as above; conditions: 0.1 nM; incubation time: 72 h
Description: as §2

COc1nc(N)nc2c1ncn2[C@@H]1O[C@H](CO)[C@@H](O)[C@@H]1O [Nelarabine]
Conditions	normalised viability
BT-549, 1 nM	92% and 96.5%
CAL-51 [2], 3 nM	106% and 105%
CAL-51 [2], 30 nM	98.7% and 104%
CAL-51 [2], 100 nM	97.4% and 106%
CAL-51 [11], 1 nM	102% and 99.3%
CAL-85-1, 1 nM	105% and 107%
CAL-120, 1 nM	101% and 102%
CAL-148, 1 nM	101% and 110%
DU-4475 [8], 3 nM	117% and 116%
DU-4475 [8], 30 nM	97% and 101%
DU-4475 [8], 100 nM	106% and 126%
DU-4475 [17], 1 nM	109% and 118%
HCC1143 [4], 1000 nM	103% and 88.2%
HCC1143 [4], 10000 nM	105% and 89.6%
HCC1143 [13], 1 nM	105% and 98.5%
HCC1599, 1 nM	121% and 119%
HCC1937 [9], 1000 nM	109% and 93.9%
HCC1937 [9], 10000 nM	92.3% and 80.8%
HDQ-P1, 1 nM	77.2% and 91.2%
Hs578T [1], 10 nM	103% and 92.6%
Hs578T [1], 1000 nM	103% and 95.2%
Hs578T [1], 10000 nM	89.4% and 85.8%
Hs578T [10], 1 nM	99.1% and 107%
MDA-MB-231 [5], 10 nM	88.9% and 90.1%
MDA-MB-231 [5], 1000 nM	87.8% and 95%
MDA-MB-231 [5], 10000 nM	92.7% and 89.8%
MDA-MB-231 [14], 1 nM	93.7% and 78.7%
MDA-MB-436 [6], 10000 nM	91.2% and 94.8%
MDA-MB-436 [15], 1 nM	98.1% and 89.7%
MDA-MB-453, 1 nM	101% and 80.4%
MDA-MB-468 [7], 10 nM	97.3% and 99%
MDA-MB-468 [7], 1000 nM	93.2% and 93.8%
MDA-MB-468 [7], 10000 nM	94.3% and 93.1%
MDA-MB-468 [16], 1 nM	103% and 92.2%
MFM-223 [3], 10 nM	108% and 111%
MFM-223 [3], 1000 nM	94.9% and 98.1%
MFM-223 [3], 10000 nM	103% and 104%
MFM-223 [12], 1 nM	97.6% and 107%
SK-BR-3, 1 nM	90% and 95.9%

Conditions	normalised viability
HCC1937 [18]	94.7% and 81.3%

Cc1nc(Nc2ncc(C(=O)Nc3c(C)cccc3Cl)s2)cc(N2CCN(CCO)CC2)n1 [Dasatinib]
Conditions	normalised viability
BT-549, 0.1 nM	101% and 89.2%
CAL-51 [2], 0.3 nM	106% and 112%
CAL-51 [2], 3 nM	92.3% and 93.9%
CAL-51 [2], 10 nM	79.3% and 84.4%
CAL-51 [11], 0.1 nM	105% and 114%
CAL-85-1, 0.1 nM	97.2% and 88.5%
CAL-120, 0.1 nM	104% and 85.6%
CAL-148, 0.1 nM	104% and 96.1%
DU-4475 [8], 0.3 nM	107% and 83.4%
DU-4475 [8], 3 nM	101% and 97.1%
DU-4475 [8], 10 nM	101% and 95.7%
DU-4475 [17], 0.1 nM	109% and 110%
HCC1143 [4], 1 nM	100% and 78.6%
HCC1143 [4], 100 nM	65.4% and 55%
HCC1143 [4], 1000 nM	48.9% and 37.6%
HCC1143 [13], 0.1 nM	102% and 84.5%
HCC1599, 0.1 nM	106% and 88.6%
HCC1937 [9], 1 nM	95.7% and 92.3%
HCC1937 [9], 100 nM	53.9% and 78%
HDQ-P1, 0.1 nM	126% and 109%
Hs578T [1], 1 nM	108% and 102%
Hs578T [1], 100 nM	55.5% and 45.7%
Hs578T [1], 1000 nM	27% and 24.8%
Hs578T [10], 0.1 nM	107% and 97.2%
MDA-MB-231 [5], 1 nM	87.5% and 81.5%
MDA-MB-231 [5], 100 nM	53% and 40.2%
MDA-MB-231 [5], 1000 nM	40.5% and 34%
MDA-MB-231 [14], 0.1 nM	110% and 86.5%
MDA-MB-436 [6], 1 nM	91.2% and 105%
MDA-MB-436 [6], 100 nM	64.8% and 56.8%
MDA-MB-436 [6], 1000 nM	40.4% and 30.4%
MDA-MB-436 [15], 0.1 nM	94.8% and 91.2%
MDA-MB-453, 0.1 nM	103% and 97.2%
MDA-MB-468 [7], 1 nM	114% and 109%
MDA-MB-468 [7], 100 nM	105% and 100%
MDA-MB-468 [7], 1000 nM	94.6% and 90.4%
MDA-MB-468 [16], 0.1 nM	109% and 100%
MFM-223 [3], 1 nM	96.2% and 96.8%
MFM-223 [3], 100 nM	84.3% and 90.4%
MFM-223 [3], 1000 nM	70.1% and 72%
MFM-223 [12], 0.1 nM	99.2% and 94.2%
SK-BR-3, 0.1 nM	98.2% and 92.7%

Conditions	normalised viability
BT-474	97.5% and 85.4%
